From patent publication US12630525B2, “Triazinylmethylcycloalkylcarboxylic acid derivative, and pharmaceutical composition and use thereof” (SHANGHAI HAIYAN PHARMACEUTICAL TECHNOLOGY CO., LTD., priority 2021, dated 2026) come the findings set out here.

In series [1] the target is T1, hP2X2/3 (Homo sapiens, UniProt P56373+Q9UBL9).
T1 construct: host or cells: 1321N1
T1 sequence (P56373 1-397): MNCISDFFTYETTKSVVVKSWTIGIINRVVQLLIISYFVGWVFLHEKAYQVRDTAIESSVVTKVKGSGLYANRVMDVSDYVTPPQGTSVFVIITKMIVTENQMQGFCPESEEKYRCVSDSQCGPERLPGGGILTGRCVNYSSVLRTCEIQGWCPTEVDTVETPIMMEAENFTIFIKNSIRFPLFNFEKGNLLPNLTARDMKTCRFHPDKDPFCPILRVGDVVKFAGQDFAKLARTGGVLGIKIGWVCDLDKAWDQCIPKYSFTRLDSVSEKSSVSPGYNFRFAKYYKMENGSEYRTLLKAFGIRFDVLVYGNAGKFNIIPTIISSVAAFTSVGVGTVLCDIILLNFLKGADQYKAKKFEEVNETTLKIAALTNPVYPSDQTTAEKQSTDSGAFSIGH
T1 sequence (Q9UBL9 1-471): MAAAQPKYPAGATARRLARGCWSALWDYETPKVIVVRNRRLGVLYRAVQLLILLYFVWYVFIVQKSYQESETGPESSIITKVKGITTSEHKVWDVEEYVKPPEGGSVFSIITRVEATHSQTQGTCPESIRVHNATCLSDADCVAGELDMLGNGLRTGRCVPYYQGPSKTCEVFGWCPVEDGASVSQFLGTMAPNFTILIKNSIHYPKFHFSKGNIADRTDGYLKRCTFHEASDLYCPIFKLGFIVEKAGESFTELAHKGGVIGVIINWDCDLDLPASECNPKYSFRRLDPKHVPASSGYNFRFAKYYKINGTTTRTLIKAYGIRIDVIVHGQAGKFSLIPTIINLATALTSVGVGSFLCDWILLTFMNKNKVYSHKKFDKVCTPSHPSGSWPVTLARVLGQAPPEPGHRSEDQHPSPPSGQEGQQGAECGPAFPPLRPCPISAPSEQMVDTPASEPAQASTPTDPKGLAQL
Kind of series: FLIPR assay, antagonistic activity against hP2X2/3 receptor (selectivity versus P2X3). The format is cell-based. To be noted: Multiple of P2X2/3 inhibitory activity and P2X3 inhibitory activity. As for the experimental part:
(§1) Test Example 1: Screening Compounds for Antagonistic Activity Against hP2X3/hP2X2/3 Receptors by FLIPR Assay
(§2) Cell preparation: Cells 1321N1/hP2X3 and cells 1321N1/hP2X2/3 (supplier: Chempartner) were […] with Versene digestive solution. After centrifugation, the cells were suspended using plate medium (DMEM+[…]) and counted. The cells were adjusted to 3×10^5 cells/mL. Each of the 384-well test plates was covered with 50 μL cells and cultured in a […] incubator at 37° C. for 16 hours to 24 hours.
(§3) Compound preparation: 1. Test sample: test compound at a concentration 180 times the required concentration (54 mM DMSO stock solution) was prepared using DMSO in a 384-well polypropylene microporous plate conforming to Echo standard, 500 nL of which was added to each well of a 384-well compound plate. Then 30 μL of test buffer (1*HIBSS+2 mM CaCl2+20 mM HEPES containing 1.26 mM Ca^2+) was added to each well. The 384-well compound plate was shook for 20 min to 40 min to mix well.
(§4) 2. Agonist: agonist ([…]) at a concentration 3 times the required concentration (the final concentration of 3000 nM is required for both hP2X3 and hP2X2/3 cells) was prepared with the test buffer. 45 μL of agonist was added to each well of the 384-well compound plate.
(§5) Dye incubation: The cell plate was taken out. The supernatant was removed. 30 uL of Dye (FLTPR® Calcium 4 Assay Kit, test buffer diluted) was added to each well. The cells were incubated for 1 hour.
(§6) FLTPR detection: 15 μL of compound was added to each well of the cell plate (FLTPR instrument sampling). After 15 minutes, 22.5 μL of agonist was added to each well. Fluorescence signals (excitation wavelength of 470 nm to 495 nm, emission wavelength of 515 nm to 575 nm) were detected.
(§7) Data processing: the difference between the peak value and the valley value of the signal was taken as the basic data. The highest concentration of positive drug was taken as 100% inhibition rate, and DMSO data was taken as 0% inhibition rate. The inhibition curves of compounds were fitted by log (inhibitor) vs. response—Variable slope on Graphpad prism 6 and the IC50 value was calculated.
(§8) Experimental homogeneity standard: each plate was subjected to ≥12 max values (DMSO action results) and ≥12 min values (highest concentration positive drug action results), and the Z value was calculated. If Z≥0.5, it is considered that the parallel wells are homogenous and the data is reliable. The calculation formula for Z value is as follows: Z=1−3*(SDmax+SDmin)/([…]).

The target in series [2] is T2, hP2X3 (Homo sapiens, UniProt P56373).
T2 construct: host or cells: 1321N1
T2 sequence (P56373 1-397): T1 sequence (P56373 1-397)
Kind of series: FLIPR assay, antagonistic activity against hP2X3 receptor. The following applies: 1321N1/hP2X3 cells, FLIPR Calcium 4, agonist 3000 nM; read-out: P2X3 (IC50/nM). The format is cell-based. Here is the method: as §1, §2, §3, §4, §5, §6, §7, §8

Series [3] in a line: Exposure at the effective dose in the rat pain model (basis for safety windows). The following applies: in vivo. An excerpt: Calculation Basis for Safety Windows:
The nature of series [4]: 14-day toxicity test with toxicokinetics in SD rats. Type of series: in vivo. To be noted: for AUC / Cmax: SD, rat, blood, 100 mg/kg. As for the experimental part: Test Example 3: Toxicity Test
There were 16 male and 16 female SD rats with SPF grade. Male SD rats weighed about 240 g and were 6 to 9 weeks old. Female SD rats weighed about 200 g and were 6 to 9 weeks old. All the experimental animals were purchased from Zhejiang Weitonglihua Experimental Animal Technology Co., LTD. After purchase, food and water were supplied in the way of free feeding. The feeding temperature was 20° C. to 26° C. The humidity was 40% to 70%. The number of air changes per hour was ≥15 times, and 100% fresh air was used. Automatic lighting and alternating light and dark every 12 hours were used. Male and female are kept in separate cages, with no more than 5 rats per cage.
Animals in each group were randomly divided according to gender and body weight, and were given the medicament once a day for 14 days according to the dose design in Table 7. Toxicokinetic blood sampling was performed in each dose group 30 min, 1 hr, 4 hr, 7 hr, 10 hr and 24 hr before and after the first and last administration, respectively, to investigate the toxicokinetic process in SD rats of each group.

The test system of series [5] is mechanical pain hypersensitivity in the rat CFA inflammatory pain model. Kind of series: Analgesic effect in rat CFA inflammatory pain model (von Frey paw withdrawal threshold). The format is in vivo, SD rats. Here is the method: Test Example 2: Evaluation of Analgesic Effect of Rat CFA Inflammatory Pain Model
Experimental animals: 50 male SD rats with a weight of 230 g to 260 g were used. All the experimental animals were purchased from Beijing Weitonglihua Experimental Animal Technology Co., LTD. After purchase, food and water were supplied in the way of free feeding. The feeding temperature was 20° C. to 25° C. The humidity was 40% to 70%. The animals were kept in separate cages and labeled using the tail labeling method.
An emulsion was obtained by mixing full Freund's adjuvant with saline in equal amount. A certain amount of the emulsion was injected subcutaneously into the rats. The animal was placed in a specially designed multi-unit metal mesh cage for pain detection and allowed to acclimate for 15 minutes. After the animal's grooming and investigation activities were completed and acclimated to the detection environment, a series of calibrated von Frey filaments (0.4, 0.6, 1.0, 1.4, 2, 4, 6, 8, 10, 15) were continuously applied to the back paw until a withdrawal reflex reaction occurred. The tester conducted blind test on the experiment, and the experimental results were expressed as “mean±standard deviation”. The data of each group are analyzed by GraphPad Prism 5 t test, with statistical difference at P<0.05.

The mark [6] stands for this setting: female, female SD rats, 100 mg/kg once a day for 14 days, last administration, read-out: AUC0t Last administration.
Where [7] appears, read: female, female SD rats, 100 mg/kg once a day for 14 days, last administration, read-out: Cmax Last administration.
[8] abbreviates: female, female SD rats, 100 mg/kg once a day, first administration, read-out: AUC0t First administration.
[9] abbreviates: female, female SD rats, 100 mg/kg once a day, first administration, read-out: Cmax First administration.
The mark [10] stands for this setting: male, male SD rats, 100 mg/kg once a day for 14 days, last administration, read-out: AUC0t Last administration.
The mark [11] stands for this setting: male, male SD rats, 100 mg/kg once a day for 14 days, last administration, read-out: Cmax Last administration.
Setting [12] is: male, male SD rats, 100 mg/kg once a day, first administration, read-out: AUC0t First administration.
The mark [13] stands for this setting: male, male SD rats, 100 mg/kg once a day, first administration, read-out: Cmax First administration.

Each structure is given as a SMILES string.

As to `O=C(O)[C@@H]1C[C@H]1Cn1c(=O)[nH]/c(=N\c2ccc(Oc3ncccc3F)cc2)n(Cc2ccc(Cl)cc2)c1=O` (racemic) [Compound H8, (±) trans-2-((3-(4-chlorobenzyl)-4-((4-((3-fluoropyridin-2-yl)oxy)phenyl)imino)-2,6-dioxo-1,3,5-triazin-1-yl)methyl)cyclopropane-1-carboxylic acid], the Selectivity multiple in series [1] was 238. In addition, in series [2], the IC50 is 148 nM.

In series [1], `O=C(O)[C@@H]1C[C@H]1Cn1c(=O)[nH]/c(=N\c2ccc(Oc3ccccn3)cc2)n(Cc2ccc(Cl)cc2)c1=O` (racemic) [Compound H2, (±) trans-2-((3-(4-chlorobenzyl)-2,6-dioxo-4-(4-(pyridin-2-yloxy)phenylimino)-1,3,5-triazin-1-yl)methyl)cyclopropanecarboxylic acid] showed a Selectivity multiple of 151.

In the case of `O=C(O)[C@@H]1C[C@@H]1Cn1c(=O)[nH]/c(=N\c2ccc(Oc3ccccn3)cc2)n(Cc2ccc(Cl)cc2)c1=O` (racemic) [Compound H1, (±) cis-2-((3-(4-chlorobenzyl)-2,6-dioxo-4-(4-(pyridin-2-yloxy)phenylimino)-1,3,5-triazin-1-yl)methyl)cyclopropanecarboxylic acid], in series [1], the Selectivity multiple was 27.

`C[C@@H](Cn1c(=O)nc(Nc2ccc(Oc3ccccn3)cc2)n(Cc2ccc(Cl)cc2)c1=O)C(=O)O` [Compound D1, reference compound]: the AUC was about 1570 µg·h/mL in series [3] (60 mg/kg); 2150 µg·h/mL in series [4] (setting [6]); 2420 µg·h/mL in series [4] (setting [8]); 2540 µg·h/mL in series [4] (setting [10]); 2770 µg·h/mL in series [4] (setting [12]). In addition, the Cmax is about 141 µg/mL in series [3] (60 mg/kg); 156 µg/mL in series [4] (setting [7]); 185 µg/mL in series [4] (setting [9]); 188 µg/mL in series [4] (setting [11]); 200 µg/mL in series [4] (setting [13]). Besides, the “effective dose in the rat pain model” value in series [5] (oral) was found to be 60 mg/kg.

`O=C(O)[C@@H]1C[C@H]1Cn1c(=O)[nH]/c(=N\c2ccc(Oc3cccc(F)n3)cc2)n(Cc2ccc(Cl)cc2)c1=O` (racemic) [Compound H7, (±) trans-2-((3-(4-chlorobenzyl)-4-((4-((6-fluoropyridin-2-yl)oxy)phenyl)imino)-2,6-dioxo-1,3,5-triazin-1-yl)methyl)cyclopropan-1-carboxylic acid] returned a Selectivity multiple in series [1] of 114. Also, in series [2], the IC50 stood at 73 nM.

Turning to `O=C(O)[C@H]1C[C@@H]1Cn1c(=O)[nH]/c(=N\c2ccc(Oc3ccc(F)cn3)cc2)n(Cc2ccc(Cl)cc2)c1=O` [Compound H5-P1, (1S,2S)-2-((3-(4-chlorobenzyl)-4-((4-((5-fluoropyridin-2-yl)oxy)phenyl)imino)-2,6-dioxo-1,3,5-triazin-1-yl)methyl)cyclopropan-1-carboxylic acid], the AUC in series [3] (30 mg/kg) is about 249 µg·h/mL; in series [4] (setting [6]) it was 1740 µg·h/mL; in series [4] (setting [8]) it was 1420 µg·h/mL; in series [4] (setting [10]), 2390 µg·h/mL; in series [4] (setting [12]), 1460 µg·h/mL. Further, the Cmax in series [3] (30 mg/kg) was about 18.4 µg/mL; in series [4] (setting [7]), 135 µg/mL; in series [4] (setting [9]), 112 µg/mL; in series [4] (setting [11]), 162 µg/mL; in series [4] (setting [13]), 101 µg/mL. In series [4] (from the data in Table 8), the “safety window (in words)” value is given as “high”. Further, in series [1], the Selectivity multiple was 590. Also, the IC50 in series [2] is 23 nM. In addition, the “analgesic effect 4 hours after administration” value in series [5] (60 mg/kg oral, 4 hours after administration) is recorded as “good analgesic effect”. Moreover, the “mechanical pain hypersensitivity (paw withdrawal threshold)” value in series [5] (rat CFA model, oral, 30 and 60 mg/kg, FIG. 2 and FIG. 3) was “significantly inhibits”. In addition, the “effective dose in the rat pain model” value in series [5] (oral) was 30 mg/kg.

`O=C(O)[C@@H]1C[C@H]1Cn1c(=O)[nH]c(=Nc2ccc(Oc3ccc(F)cn3)cc2)n(Cc2ccc(Cl)cc2)c1=O` [Compound H5-P2, (1R,2R)-2-((3-(4-chlorobenzyl)-4-((4-((5-fluoropyridin-2-yl)oxy)phenyl)imino)-2,6-dioxo-1,3,5-triazin-1-yl)methyl)cyclopropan-1-carboxylic acid] returned a Selectivity multiple in series [1] of 176. Besides, the IC50 in series [2] turned out to be 106 nM.

Regarding `O=C(O)[C@@H]1C[C@H]1Cn1c(=O)[nH]/c(=N\c2ccc(Oc3ccc(F)cn3)cc2)n(Cc2ccc(Cl)cc2)c1=O` (racemic) [Compound H5, (±) trans-2-((3-(4-chlorobenzyl)-4-((4-((5-fluoropyridin-2-yl)oxy)phenyl)imino)-2,6-dioxo-1,3,5-triazin-1-yl)methyl)cyclopropan-1-carboxylic acid], the Selectivity multiple in series [1] worked out at 251.
